Data taken from ChEMBL document CHEMBL1127008, “Synthesis of myo-inositol 1,2,4,5-tetrakisphosphate, a Ca2+-mobilising tetrakisphosphate with a potency similar to myo-inositol 1,4,5-trisphosphate” (Bioorg Med Chem Lett, 1993).

Columns and labels:
[1] = Compound was evaluated for its ability to mobilize calcium from [Ca(2+)]-preloaded SH-SY5Y cells permeabilised using saponin; type: functional, cell-based; settings: Homo sapiens
Rattus norvegicus = organism: Rattus norvegicus; experiment: Enzyme kinetics constant (Km value) was determined in rat brain homogenate […]; type: functional
Homo sapiens [2] = organism: Homo sapiens; experiment: Enzyme kinetics constant (Km value) was determined in human erythrocyte membrane […]; type: functional
[3] = Compound was evaluated for its ability to mobilize calcium in 1321NI cells; type: functional, cell-based
[4] = Inhibition of Ins(1,4,5)P3 phosphorylation by rat brain homogenate; type: functional
[5] = biological target: Inositol 1,4,5-trisphosphate-gated calcium channel ITPR3 (Bos taurus, UniProt Q8WN95); experiment: Compound was evaluated for its ability to displace [3H]Ins(1,4,5)P3 from membranes prepared from bovine adrenal corticles
[6] = Compound was evaluated for its ability to mobilize calcium from [Ca(2+)]-preloaded SH-SY5Y cells permeabilised using saponin; devoid of [Ca2+] mobilising activity; type: functional, cell-based, Homo sapiens
Homo sapiens [7] = organism: Homo sapiens; experiment: Compound was evaluated for the inhibition of [3H]- Ins(1,4,5)P3 dephosphorylation by human erythrocyte membrane Ins(1,4,5)P3 5-phosphatase; type: functional

Sequence of Inositol 1,4,5-trisphosphate-gated calcium channel ITPR3 (Q8WN95 whole entry): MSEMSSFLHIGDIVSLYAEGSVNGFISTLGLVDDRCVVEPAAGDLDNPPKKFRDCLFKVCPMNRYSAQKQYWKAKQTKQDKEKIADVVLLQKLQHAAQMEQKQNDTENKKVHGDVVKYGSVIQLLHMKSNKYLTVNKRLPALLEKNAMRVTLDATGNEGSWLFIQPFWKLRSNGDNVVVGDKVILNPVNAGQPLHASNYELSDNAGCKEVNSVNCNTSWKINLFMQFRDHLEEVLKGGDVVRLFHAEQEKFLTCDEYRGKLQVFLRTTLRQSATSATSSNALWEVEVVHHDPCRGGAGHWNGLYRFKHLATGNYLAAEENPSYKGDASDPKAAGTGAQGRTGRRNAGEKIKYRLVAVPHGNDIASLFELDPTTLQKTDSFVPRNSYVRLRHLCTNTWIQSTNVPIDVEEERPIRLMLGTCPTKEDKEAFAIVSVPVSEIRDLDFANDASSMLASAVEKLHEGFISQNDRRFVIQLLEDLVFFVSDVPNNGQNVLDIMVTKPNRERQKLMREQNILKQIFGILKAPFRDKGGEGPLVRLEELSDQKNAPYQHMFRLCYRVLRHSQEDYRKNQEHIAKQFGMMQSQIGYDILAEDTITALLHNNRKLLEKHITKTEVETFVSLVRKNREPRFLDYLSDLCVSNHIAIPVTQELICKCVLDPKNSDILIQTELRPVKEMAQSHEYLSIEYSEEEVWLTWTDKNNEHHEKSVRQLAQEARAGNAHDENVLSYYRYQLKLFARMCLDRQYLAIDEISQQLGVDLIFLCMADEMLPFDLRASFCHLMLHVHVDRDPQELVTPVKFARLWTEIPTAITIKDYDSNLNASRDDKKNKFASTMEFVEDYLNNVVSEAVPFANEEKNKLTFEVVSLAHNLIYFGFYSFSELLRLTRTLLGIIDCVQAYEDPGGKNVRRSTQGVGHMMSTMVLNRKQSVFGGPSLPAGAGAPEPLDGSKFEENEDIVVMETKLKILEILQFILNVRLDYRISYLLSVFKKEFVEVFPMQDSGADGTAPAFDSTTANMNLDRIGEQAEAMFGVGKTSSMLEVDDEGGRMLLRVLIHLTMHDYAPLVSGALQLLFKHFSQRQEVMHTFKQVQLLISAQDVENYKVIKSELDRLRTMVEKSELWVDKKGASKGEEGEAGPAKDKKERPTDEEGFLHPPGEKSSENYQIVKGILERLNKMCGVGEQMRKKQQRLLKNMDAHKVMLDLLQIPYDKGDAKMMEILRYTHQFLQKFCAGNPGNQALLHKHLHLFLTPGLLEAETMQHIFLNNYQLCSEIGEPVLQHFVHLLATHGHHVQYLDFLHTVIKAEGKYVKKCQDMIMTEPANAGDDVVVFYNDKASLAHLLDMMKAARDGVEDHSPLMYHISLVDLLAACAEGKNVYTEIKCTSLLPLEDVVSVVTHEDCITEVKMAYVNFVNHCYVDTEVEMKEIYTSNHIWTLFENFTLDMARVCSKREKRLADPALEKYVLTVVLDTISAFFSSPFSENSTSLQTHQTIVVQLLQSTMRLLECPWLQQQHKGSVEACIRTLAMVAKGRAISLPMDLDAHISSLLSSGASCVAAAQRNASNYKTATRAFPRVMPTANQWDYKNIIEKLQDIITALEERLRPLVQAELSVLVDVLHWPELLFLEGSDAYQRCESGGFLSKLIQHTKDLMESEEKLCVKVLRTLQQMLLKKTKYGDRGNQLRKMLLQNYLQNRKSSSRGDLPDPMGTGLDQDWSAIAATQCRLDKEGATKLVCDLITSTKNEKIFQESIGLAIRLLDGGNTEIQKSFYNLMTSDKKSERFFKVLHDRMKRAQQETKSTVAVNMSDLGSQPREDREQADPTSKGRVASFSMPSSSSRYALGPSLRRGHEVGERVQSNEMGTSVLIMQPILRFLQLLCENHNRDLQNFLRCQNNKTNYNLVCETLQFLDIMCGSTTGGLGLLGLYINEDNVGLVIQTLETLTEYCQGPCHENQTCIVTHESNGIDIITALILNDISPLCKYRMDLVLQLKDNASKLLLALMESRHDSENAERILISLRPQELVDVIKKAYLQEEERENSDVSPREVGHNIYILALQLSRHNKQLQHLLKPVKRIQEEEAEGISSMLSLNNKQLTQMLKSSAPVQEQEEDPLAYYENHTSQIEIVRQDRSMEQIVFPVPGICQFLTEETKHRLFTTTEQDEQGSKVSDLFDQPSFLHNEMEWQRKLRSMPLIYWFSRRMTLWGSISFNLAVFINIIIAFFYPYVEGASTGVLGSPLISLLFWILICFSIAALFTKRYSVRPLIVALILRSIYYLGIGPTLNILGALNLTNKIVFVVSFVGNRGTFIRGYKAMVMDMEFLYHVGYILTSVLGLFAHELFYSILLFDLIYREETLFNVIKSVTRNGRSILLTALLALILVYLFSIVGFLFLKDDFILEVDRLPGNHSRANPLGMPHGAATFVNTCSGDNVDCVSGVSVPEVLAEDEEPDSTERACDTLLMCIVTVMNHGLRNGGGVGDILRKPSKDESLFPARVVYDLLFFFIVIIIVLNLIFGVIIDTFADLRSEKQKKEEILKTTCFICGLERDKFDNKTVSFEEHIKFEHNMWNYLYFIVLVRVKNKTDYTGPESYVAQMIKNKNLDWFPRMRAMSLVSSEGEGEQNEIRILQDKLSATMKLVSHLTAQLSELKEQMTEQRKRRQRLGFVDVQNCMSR

| Structure (SMILES) | EC50 [1] [µM] | Km (Rattus norvegicus) [µM] | Km (Homo sapiens [2]) [µM] | EC50 [3] [µM] | Ki [4] [µM] | Ki [5] [µM] | EC50 [6] | Ki (Homo sapiens [7]) [µM] |
| --- | --- | --- | --- | --- | --- | --- | --- | --- |
| O=P(O)(O)O[C@@H]1[C@H](O)[C@H](O)[C@@H](OP(=O)(O)O)[C@H](OP(=O)(O)O)[C@H]1O [INS(1,4,5)P3] | 0.052 | 1.5 | 31.8 |  |  |  |  |  |
| O=C(OC1C(OP(=O)(O)O)C(OP(=O)(O)O)C(OC(=O)c2ccccc2)C(OP(=O)(O)O)C1OP(=O)(O)O)c1ccccc1 (centres undefined) |  |  |  | < 100 | 100 | < 3 | Not Active | 15.9 |
| O=P(O)(O)O[C@H]1[C@H](O)[C@@H](OP(=O)(O)O)[C@H](OP(=O)(O)O)[C@@H](OP(=O)(O)O)[C@H]1O | 2.1 |  |  |  |  |  |  |  |
